Reference: US9493468B2, “Antifungal 5,6-dihydro-4H-pyrrolo[1,2-a][1,4]benzo-diazepines and 6H-pyrrolo[1,2-a][1,4]benzodiazepines substituted with heterocyclic derivatives” (Janssen Pharmaceutica NV, priority 2011, dated 2016)

Assays:
Candida parapsilosis = test: Antifungal activity in vitro, resazurin growth inhibition: Candida parapsilosis (B66126); type: cell-based; details: for IC50: Lodderomyces parapsilosis, read-out: Inf. D: Candida parapsilosis B66126, pIC50 (converted)
How it was run: (§1)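 Compound dilutions, with 64 μM as the highest in-test level, are spotted onto plates, then an inoculum of 10^3 cfu in RPMI-1640 plus 2% glucose (MOPS, pH 7.0±0.1) is added. Plates are incubated at species-dependent time and temperature, up to a week or more at 27° C. for dermatophytes.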

Trichophyton rubrum = test: Antifungal activity in vitro, resazurin growth inhibition: Trichophyton rubrum (B68183); type: cell-based; details: for IC50: read-out: Inf. C: Trichophyton rubrum B68183, pIC50 (converted)
How it was run: (§2)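 Broth microdilution: RPMI-1640/L-Gln/2% glucose, MOPS pH 7.0±0.1; 10^3 cfu/well; top concentration 64 μM, 2- or 4-fold steps. Dermatophytes at 27° C., one week or more. Resazurin 0.005% (w/v) added, fluorescence 550/590 nm.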

Microsporum canis = test: Antifungal activity in vitro, resazurin growth inhibition: Microsporum canis (B68128); type: cell-based; details: for IC50: read-out: Inf. B: Microsporum canis B68128, pIC50 (converted)
How it was run: as §2

Rhizomucor miehei = test: Antifungal activity in vitro, resazurin growth inhibition: Rhizomucor miehei (IHEM13391); type: cell-based; details: for IC50: read-out: Inf. K: Rhizomucor miehei IHEM13391, pIC50 (converted)
How it was run: as §1

Aspergillus fumigatus = test: Antifungal activity in vitro, resazurin growth inhibition: Aspergillus fumigatus (B42928); type: cell-based; details: for IC50: read-out: Inf. E: Aspergillus fumigatus B42928, pIC50 (converted)
How it was run: as §1

Sporothrix schenkii = test: Antifungal activity in vitro, resazurin growth inhibition: Sporothrix schenkii (B62482); type: cell-based; details: for IC50: read-out: Inf. A: Sporothrix schenkii B62482, pIC50 (converted)
How it was run: as §1

Cryptococcus neoformans = test: Antifungal activity in vitro, resazurin growth inhibition: Cryptococcus neoformans (B66663); type: cell-based; details: for IC50: read-out: Inf. F: Cryptococcus neoformans B66663, pIC50 (converted)
How it was run: as §1

Scedosporium apiospermum = test: Antifungal activity in vitro, resazurin growth inhibition: Scedosporium apiospermum (IHEM3817); type: cell-based; details: for IC50: read-out: Inf. H: Scedosporium apiospermum IHEM3817, pIC50 (converted)
How it was run: as §1

[1] = system: Trichophyton mentagrophytes; test: Antifungal activity in vitro, resazurin growth inhibition: Trichophyton mentagrophytes (B70554); type: cell-based; details: for IC50: read-out: Inf. G: Trichophyton mentagrophytes B70554, pIC50 (converted)
How it was run: as §2

Scedosporium prolificans = test: Antifungal activity in vitro, resazurin growth inhibition: Scedosporium prolificans (IHEM21157); type: cell-based; details: for IC50: Lomentospora prolificans, read-out: Inf. I: Scedosporium prolificans IHEM21157, pIC50 (converted)
How it was run: as §1

Rhizopus oryzae = test: Antifungal activity in vitro, resazurin growth inhibition: Rhizopus oryzae (IHEM5223); type: cell-based; details: for IC50: Rhizopus arrhizus, read-out: Inf. J: Rhizopus oryzae IHEM5223, pIC50 (converted)
How it was run: as §1

Row | Compound | IC50 (Candida parapsilosis) [nM] | IC50 (Trichophyton rubrum) [nM] | IC50 (Microsporum canis) [nM] | IC50 (Rhizomucor miehei) [nM] | melting point [°C] | IC50 (Aspergillus fumigatus) [nM] | IC50 (Sporothrix schenkii) [nM] | IC50 (Cryptococcus neoformans) [nM] | IC50 (Scedosporium apiospermum) [nM] | Inf. D: Candida parapsilosis B66126, pIC50 (Candida parapsilosis) | Inf. C: Trichophyton rubrum B68183, pIC50 (Trichophyton rubrum) | Inf. B: Microsporum canis B68128, pIC50 (Microsporum canis) | Inf. K: Rhizomucor miehei IHEM13391, pIC50 (Rhizomucor miehei) | Inf. E: Aspergillus fumigatus B42928, pIC50 (Aspergillus fumigatus) | Inf. A: Sporothrix schenkii B62482, pIC50 (Sporothrix schenkii) | Inf. F: Cryptococcus neoformans B66663, pIC50 (Cryptococcus neoformans) | Inf. H: Scedosporium apiospermum IHEM3817, pIC50 (Scedosporium apiospermum) | Inf. G: Trichophyton mentagrophytes B70554, pIC50 [1] | Inf. I: Scedosporium prolificans IHEM21157, pIC50 (Scedosporium prolificans) | Inf. J: Rhizopus oryzae IHEM5223, pIC50 (Rhizopus oryzae) | further results
1 | Cc1cccc2cc(C3=NCc4c(Cl)cccc4-n4cccc43)oc12 [Compound 7] | 9770 | 64.6 | 174 | 7080 | 175.2 to 177.3 | 302 | 2750 | 759 | 513 |  |  |  |  |  |  |  |  |  |  |  | IC50 [1]: 245 nM; IC50 (Scedosporium prolificans): 214 nM; IC50 (Rhizopus oryzae): > 64600 nM
2 | FC(F)(F)c1cc(C2=NCc3c(Cl)cccc3-n3cccc32)ccn1 [Compound 3] | > 64600 | 42.7 | 126 | > 64600 | 158.2 to 160.6 | 1350 | > 64600 | > 64600 | 2140 |  |  |  |  |  |  |  |  |  |  |  | IC50 [1]: 229 nM; IC50 (Scedosporium prolificans): 3020 nM; IC50 (Rhizopus oryzae): > 64600 nM
3 | Clc1cccc2c1-n1cccc1C(c1cc3ccccc3o1)=NC2 [Compound 5] | > 64600 | 69.2 | 316 | 7940 | 159.9 to 160.8 | 2690 | 661 | 3550 | 6030 |  |  |  |  |  |  |  |  |  |  |  | IC50 [1]: 107 nM; IC50 (Scedosporium prolificans): 309 nM; IC50 (Rhizopus oryzae): > 64600 nM
4 | Cc1cccc2c1CNC(c1cc3ccccc3s1)c1cccn1-2.Cl (stereo not drawn) [Compound 1] | 45700 | 67.6 | 447 | > 64600 | 242.4 to 247.7 | 2000 | 3020 | > 64600 | > 64600 |  |  |  |  |  |  |  |  |  |  |  | IC50 [1]: 204 nM; IC50 (Scedosporium prolificans): 1820 nM; IC50 (Rhizopus oryzae): > 64600 nM
5 | Fc1cc(F)c2c(c1)-n1cccc1C(c1cc3cc(Cl)cnc3o1)=NC2 [Compound 158] |  |  |  |  |  |  |  |  |  | <4.19 | 5.72 | 5.70 | <4.19 | <4.19 | <4.19 | 5.20 | 4.37 | 5.17 | 6.00 | <4.19 | 
6 | CCc1ccc(C2=NCc3c(Cl)cccc3-n3cccc32)cn1 [Compound 74] |  |  |  |  |  |  |  |  |  | 4.92 | 6.31 | 5.91 | <4.19 | 5.25 | 4.44 | <4.19 | 6.29 | 6.18 | 6.88 | <4.19 | 
7 | Fc1ccc2oc(C3NCc4c(Cl)cccc4-n4cccc43)cc2c1 (racemic) [Compound 47] |  |  |  |  |  |  |  |  |  | <4.19 | 6.25 | 5.84 | 4.81 | 4.91 | <4.19 | <4.19 | 6.03 | 5.08 | 6.38 | <4.19 | 

The next lines start with results.

Row | IC50 (Candida parapsilosis) [nM] | IC50 (Trichophyton rubrum) [nM] | IC50 (Microsporum canis) [nM] | IC50 (Rhizomucor miehei) [nM] | melting point [°C] | IC50 (Aspergillus fumigatus) [nM] | IC50 (Sporothrix schenkii) [nM] | IC50 (Cryptococcus neoformans) [nM] | IC50 (Scedosporium apiospermum) [nM] | Inf. D: Candida parapsilosis B66126, pIC50 (Candida parapsilosis) | Inf. C: Trichophyton rubrum B68183, pIC50 (Trichophyton rubrum) | Inf. B: Microsporum canis B68128, pIC50 (Microsporum canis) | Inf. K: Rhizomucor miehei IHEM13391, pIC50 (Rhizomucor miehei) | Inf. E: Aspergillus fumigatus B42928, pIC50 (Aspergillus fumigatus) | Inf. A: Sporothrix schenkii B62482, pIC50 (Sporothrix schenkii) | Inf. F: Cryptococcus neoformans B66663, pIC50 (Cryptococcus neoformans) | Inf. H: Scedosporium apiospermum IHEM3817, pIC50 (Scedosporium apiospermum) | Inf. G: Trichophyton mentagrophytes B70554, pIC50 [1] | Inf. I: Scedosporium prolificans IHEM21157, pIC50 (Scedosporium prolificans) | Inf. J: Rhizopus oryzae IHEM5223, pIC50 (Rhizopus oryzae) | Compound | further results
8 | 794 | 38.9 | 427 | 44700 | 163.9 to 164.1 | 490 | 14100 | 4270 | 10200 |  |  |  |  |  |  |  |  |  |  |  | Clc1cccc2c1CN=C(c1ccc3occc3c1)c1cccn1-2 [Compound 8] | IC50 [1]: 178 nM; IC50 (Scedosporium prolificans): 437 nM; IC50 (Rhizopus oryzae): > 15800 nM
9 |  |  |  |  |  |  |  |  |  | <4.19 | 7.32 | 6.70 | <4.19 | 6.27 | <4.19 | <4.19 | <4.19 | 6.51 | 6.15 | <4.19 | Clc1cccc2c1CN=C(c1ccc3ncsc3c1)c1cccn1-2 [Compound 184] | 
10 |  |  |  |  |  |  |  |  |  | 4.90 | 6.64 | 6.20 | 4.42 | 5.56 | <4.19 | 4.98 | 6.29 | 6.05 | 6.24 | <4.19 | Clc1cccc2c1CN=C(c1ccc3scnc3c1)c1cccn1-2 [Compound 188] | 
11 |  |  |  |  |  |  |  |  |  | 4.23 | 6.73 | 6.39 | <4.19 | 6.29 | 5.28 | 6.33 | 4.41 | 6.04 | 5.16 | <4.19 | Clc1ccc2c(c1)-n1cccc1C(c1ccc3ncsc3c1)=NC2 [Compound 185] | 
